In patent US8653276B2 (SANOFI, priority 2008, dated 2014):
Where a name gives a salt, the structure may show the parent alone.

melting point	Compound
158 °C	COC(=O)C1(NC(=O)c2ccc(-n3nc(C)cc3C)c(-c3ccc(Cl)c(OCCCN(C)C)c3)n2)CCCCC1 (as salt: hydrochloride) [Compound 18, methyl 1-({[6-{4-chloro-3-[3-(dimethylamino)propoxy]phenyl}-5-(3,5-dimethyl-1H-pyrazol-1-yl)pyridin-2-yl]carbonyl}amino)cyclohexanecarboxylate]
118 °C	COC(=O)C1(NC(=O)c2cnc(-c3ccc(C)cc3C)c(-c3ccc(Cl)c(OCCCN(C)C)c3)n2)CCCCC1 (as salt: hydrochloride) [Compound 20, methyl 1-({[6-{4-chloro-3-[3-(dimethylamino)propoxy]phenyl}-5-(2,4-dimethylphenyl)pyrazin-2-yl]carbonyl}amino)cyclohexanecarboxylate]
112 °C	CCOc1ccc(Cl)c(-c2ncc(C(=O)N[C@@H](CC(=O)OC)C(C)(C)C)nc2-c2ccc(Cl)c(OCCCN(C)C)c2)c1 (as salt: hydrochloride) [Compound 24, methyl(3S)-3-({[6-{4-chloro-3-[3-(dimethylamino)propoxy]phenyl}-5-(2-chloro-5-ethoxyphenyl)pyrazin-2-yl]carbonyl}amino)-4,4-dimethylpentanoate]
135 °C	COC(=O)C1(NC(=O)c2ccc(-c3ccccc3Cl)c(-c3ccc(Cl)c(OCCCN(C)C)c3)n2)C2CC3CC(C2)CC1C3 (stereo not drawn) (as salt: hydrochloride) [Compound 26, methyl 2-({[6-{4-chloro-3-[3-(dimethylamino)propoxy]phenyl}-5-(2-chlorophenyl)pyridin-2-yl]carbonyl}amino)adamantane-2-carboxylate]
90 °C	CCOC(=O)C[C@H](NC(=O)c1ccc(-c2ccccc2C)c(-c2ccc(Cl)c(OCCCN(C)C)c2)n1)C(C)(C)C (as salt: hydrochloride) [Compound 29, ethyl(3S)-3-({[6-{4-chloro-3-[3-(dimethylamino)propoxy]phenyl}-5-(2-methylphenyl)pyridin-2-yl]carbonyl}amino)-4,4-dimethylpentanoate]
152 °C	CNC(=O)C[C@H](NC(=O)c1ccc(-c2ccccc2C)c(-c2ccc(Cl)c(OCCCN(C)C)c2)n1)C(C)(C)C (as salt: hydrochloride) [Compound 33, 6-{4-chloro-3-[3-(dimethylamino)propoxy]phenyl}-N-{(1S)-2,2-dimethyl-1-[2-(methylamino)-2-oxoethyl]propyl}-5-(2-methylphenyl)pyridine-2-carboxamide]
